Patent publication US20060205669A1, “G-type peptides and other agents to ameliorate atherosclerosis and other pathologies” (The Regents of the University of California, priority 2004, published 2006)
Entries after “also recorded” stand apart in the source; their conditions may differ.

Experiments:
[1] = tested on: LDL receptor null mice; test: HDL protective capacity in LDL receptor null mice given peptide in drinking water; type: in vivo; conditions: 0.25 or 0.5 mg per ml drinking water, 24 or 48 hrs, mouse HDL at 100 μg cholesterol/ml, FIG. 3
Procedure: D-4F designated as F, or the apoJ peptide made from D amino acids (D-J336, designated as J) was added to the drinking water of LDL receptor null mice (4 per group) at 0.25 or 0.5 mg per ml of drinking water. After 24- or 48-hrs blood was collected from the mice and their HDL was isolated and tested for its ability to protect against LDL-induced monocyte chemotactic activity. Assay controls included culture wells that received no lipoproteins (no addition), or control human LDL alone (designated as LDL, 200 μg cholesterol/ml), or control LDL+control human HDL (designated as +HDL, 350 μg HDL cholesterol). For testing the mouse HDL, the control LDL was added together with mouse HDL (+F HDL or +J HDL) to artery wall cell cultures. The mouse HDL was added at 100 μg cholesterol/ml respectively.

[2] = tested on: ApoE null mice; test: Protection against LDL-induced monocyte chemotactic activity by HDL from apo E null mice given oral peptides; type: in vivo; conditions: peptide in drinking water (D-4F 5-50, D-J336 20-50 μg per ml), 24 hrs, murine HDL at 100 μg cholesterol/ml, FIG. 4
Procedure: FIG. 4 illustrates the effect of oral apoA-1 peptide mimetic and apoJ peptide on HDL protective capacity. ApoE null mice (4 per group) were provided with D-4F (designated as F) at 50, 30, 20, 10, 5 μg per ml of drinking water or apoJ peptide (designated as J) at 50, 30 or 20 μg per ml of drinking water. After 24 hrs blood was collected, plasma fractionated by FPLC and fractions containing LDL (designated as mLDL for murine LDL) and fractions containing HDL (designated as mHDL) were separately pooled and HDL protective capacity against LDL oxidation as determined by LDL-induced monocyte chemotactic activity was determined. For the assay controls the culture wells received no lipoproteins (no additions), mLDL alone (at 200 μg cholesterol/ml), or mLDL+standard normal human HDL (designated as Cont. h HDL, at 350 μg HDL cholesterol/ml).
For testing the murine HDL, mLDL together with murine HDL (+F mHDL or +J mHDL) were added to artery wall cell cultures. […] The murine HDL was used at 100 μg cholesterol/ml.

[3] = tested on: Obese Zucker Rats; test: Plasma glucose and lipid hydroperoxides (LOOH) in Obese Zucker Rats; type: in vivo; conditions: Obese Zucker Rats 26 weeks, 5.0 mg/kg/day intraperitoneal, 10 days; FIG. 12
Procedure: Obese Zucker Rats 26 weeks of age were bled and then treated with daily intraperitoneal injections of D-4F (5.0 mg/kg/day). After 10 days the rats were bled again plasma glucose and lipid hydroperoxides (LOOH) were determined. *p=0.027; ** p=0.0017.

[4] = tested on: Obese Zucker Rats; test: Balloon injury of the common carotid artery, intimal media ratio; type: in vivo; conditions: 5 mg/kg/daily injected for 1 week before injury, sacrificed two weeks later, FIG. 13
Procedure: FIG. 13 illustrates the effect of D4F on balloon injury of the carotid artery. Sixteen week old Obese Zucker Rats were injected with D-4F (5 mg/kg/daily) for 1 week at which time they underwent balloon injury of the common carotid artery. Two weeks later the rats were sacrificed and the intimal media ratio determined.
Sixteen week old Obese Zucker Rats were injected with D-4F (5 mg/kg/daily) for 1 week at which time they underwent balloon injury of the common carotid artery. Two weeks later the rats were sacrificed and the intimal media ratio determined.

[5] = tested on: ApoE null mice; test: HDL and pre-beta HDL from apoE null mice fed solution-phase (fragment) synthesized D-4F: inhibition of LDL-induced monocyte chemotaxis; type: in vivo; conditions: apoE null mice fed 5 micrograms solution-phase/fragment-synthesized D-4F, bled at 12 hours; FIG. 15
From the text: ApoE null mice were fed 5 micrograms of the D-4F synthesized as described above (Frgmnt) or the mice were given the same amount of mouse chow without D-4F (Chow). Twelve hours after the feeding was started, the mice were bled and their plasma was fractionated on FPLC.

[6] = tested on: ApoE null mice; test: Trabecular bone mineral density in apoE null mice; type: in vivo; conditions: drinking water, 6 weeks
[7] = tested on: mice fed an atherogenic diet; conditions: 20 μg daily injected; cited from earlier work
[8] = tested on: human LDL; conditions: human LDL treated in vitro; cited from earlier work
[9] = tested on: mice; conditions: injection into mice; cited from earlier work
[10] = tested on: human volunteers; conditions: infusion into humans; cited from earlier work

Ac-D-W-F-K-A-F-Y-D-K-V-A-E-K-F-K-E-A-F-NH2 (Ac-DWFKAFYDKVAEKFKEAF-NH2; also: D-amino acids, places not given here) [Peptide D-4F, apoA-I mimetic class A amphipathic helical peptide]
HDL protective capacity against LDL-induced monocyte chemotactic activity [1]: as active as 350 μg/ml of control human HDL | HDL protective capacity against LDL oxidation (LDL-induced monocyte chemotactic activity) [2]: as active as 350 μg/ml of normal human HDL | symptoms of diabetes (plasma glucose) [3]: effective in mitigating symptoms of diabetes | restenosis (intimal media ratio) after balloon injury of the common carotid artery [4]: reduced | biological activity: producing HDL and pre-beta HDL that inhibit LDL-induced monocyte chemotaxis [5]: biologically active in mice; also recorded: very biologically active | trabecular bone mineral density [6]: dramatically increased

Ac-D-W-L-K-A-F-Y-D-K-V-F-E-K-F-K-E-F-F-NH2 (Ac-DWLKAFYDKVFEKFKEFF-NH2) [Peptide 5F]
LDL from PBS-injected mice compared with LDL from peptide-injected mice: oxidation and induction of monocyte chemotactic activity [7]: more readily oxidized and more readily induced monocyte chemotactic activity

apo A-I: the major protein of HDL, apolipoprotein A-I
removal of seeding molecules (including HPODE and HPETE) from LDL [8]: removed seeding molecules from the LDL | LDL isolated after injection: oxidation by human artery wall cells and induction of monocyte chemotactic activity [9]: resistant to oxidation by human artery wall cells and did not induce monocyte chemotactic activity | LDL isolated after infusion: oxidation by human artery wall cells and induction of monocyte chemotactic activity [10]: resistant to oxidation by human artery wall cells and did not induce monocyte chemotactic activity
